From patent US6706663B2, “Herbicidal 3-heterocyclic substituted benzisothiazole and benzisoxazole compounds” (Wyeth, priority 2000, dated 2004)

Experiments:
[1] = test system: TRZAWR (Wheat, Winter, cv Riband); assay: Preemergence herbicidal evaluation; type: in vivo, Triticum aestivum; conditions: Rate 0.0620 kg/ha; rated 4-5 weeks after treatment
Excerpt: (§1) Results of herbicide evaluation are expressed on a rating scale (0-9). The scale is based upon a visual observation of plant stand, vigor, malformation, size, chlorosis and overall plant appearance as compared with a control.
(§2) The preemergence herbicidal activity of the test compounds of the present invention is exemplified by the following tests in which the seeds of a variety of monocotyledonous and dicotyledonous plants are separately mixed with potting soil and planted on top of approximately one inch of soil in separate pint cups. […] The treated cups are then placed on greenhouse benches, watered and cared for in accordance with conventional greenhouse procedures. From four to five weeks after treatment, the tests are terminated and each cup is examined and rated according to the rating system provided in Example 87. The plant species used and the compounds evaluated are the same as those shown in Example 87.

[2] = test system: ECHCG (Echinochloa crus-galli); assay: Postemergence herbicidal evaluation; type: in vivo, (L.) Beau; conditions: postemergence
Procedure: (§3) In the tests, seedling plants are grown in jiffy flats for about two weeks. […] After spraying, the plants are placed on greenhouse benches and are cared for in accordance with conventional greenhouse procedures. From four to five weeks after treatment, the seedling plants are examined and rated according to the rating system set forth below. Where more than one test is involved for a given compound, the data are averaged.
as §1

GALAP (Galium aparine) [3] = assay: Postemergence herbicidal evaluation; type: in vivo; conditions: postemergence
Procedure: as §3, §1

[4] = test system: GLXMAW (Soybean, Williams); assay: Postemergence herbicidal evaluation; type: in vivo, Glycine max, (L.) Merr. cv Williams; conditions: postemergence
Procedure: as §3, §1

[5] = test system: ABUTH (Abutilon theophrasti); assay: Postemergence herbicidal evaluation; type: in vivo, Medic.; conditions: postemergence
Procedure: as §3, §1

[6] = test system: AMBEL (Ambrosia artemisifolia); assay: Postemergence herbicidal evaluation; type: in vivo, L.; conditions: postemergence
Procedure: as §3, §1

[7] = test system: CASOB (Cassia obtusifolia); assay: Postemergence herbicidal evaluation; type: in vivo, L.; conditions: postemergence
Procedure: as §3, §1

[8] = test system: CHEAL (Chenopodium album); assay: Postemergence herbicidal evaluation; type: in vivo, L.; conditions: postemergence
Procedure: as §3, §1

[9] = test system: TRZAWR (Wheat, Winter, cv Riband); assay: Postemergence herbicidal evaluation; type: in vivo, Triticum aestivum; conditions: postemergence
Procedure: as §3, §1

ZEAMX (Corn, Field) [10] = assay: Postemergence herbicidal evaluation; type: in vivo, Zea mays, L.; conditions: postemergence
Procedure: as §3, §1

ORYSAT (Rice, Tebonnet) [11] = assay: Postemergence herbicidal evaluation; type: in vivo, Oryza sativa, (L.) Tebonnet; conditions: postemergence
Procedure: as §3, §1

CYPIR (Cyperus iria) = assay: Flooded paddy, preemergence weed control; type: in vivo; conditions: rated 3-4 weeks after treatment, 0-9 rating scale
Procedure: as §1
(§4) Preemergence herbicidal activity under flooded paddy conditions is determined as follows: plant seeds or propagating organs are planted in the top 0.5 cm of silt loam soil in 32 oz. plastic containers with a diameter of 10.5 cm and no drainage holes. Water is added to these containers and maintained at 1.5 to 3 cm above the soil surface for the duration of the experiment. […] The treated containers are placed on greenhouse benches and cared for in accordance with conventional greenhouse procedures.

[12] = test system: GLXMAW (Soybean, Williams); assay: Preemergence herbicidal evaluation; type: in vivo, Glycine max, (L.) Merr. cv Williams; conditions: Rate 0.0620 kg/ha; rated 4-5 weeks after treatment
Excerpt: as §1, §2

[13] = test system: ECHORC (Echinochloa oryzoides); assay: Flooded paddy, preemergence weed control; type: in vivo, Echinochloa oryzoides (Ard.) Fritsch.; conditions: rated 3-4 weeks after treatment, 0-9 rating scale
Procedure: as §1, §4

[14] = test system: MOOVA (Monochoria vaginalis); assay: Flooded paddy, preemergence weed control; type: in vivo, Presl.; conditions: rated 3-4 weeks after treatment, 0-9 rating scale
Procedure: as §1, §4

ZEAMX (Corn, Field) [15] = assay: Preemergence herbicidal evaluation; type: in vivo, Zea mays, L.; conditions: Rate 0.0620 kg/ha; rated 4-5 weeks after treatment
Excerpt: as §1, §2

[16] = test system: SAGPY (Sagittaria pygmaea); assay: Flooded paddy, preemergence weed control; type: in vivo, L.; conditions: rated 3-4 weeks after treatment, 0-9 rating scale
Procedure: as §1, §4

[17] = test system: AMBEL (Ambrosia artemisifolia); assay: Preemergence herbicidal evaluation; type: in vivo, L.; conditions: Rate 0.0620 kg/ha; rated 4-5 weeks after treatment
Excerpt: as §1, §2

[18] = test system: CASOB (Cassia obtusifolia); assay: Preemergence herbicidal evaluation; type: in vivo, L.; conditions: Rate 0.0620 kg/ha; rated 4-5 weeks after treatment
Excerpt: as §1, §2

[19] = test system: CHEAL (Chenopodium album); assay: Preemergence herbicidal evaluation; type: in vivo, L.; conditions: Rate 0.0620 kg/ha; rated 4-5 weeks after treatment
Excerpt: as §1, §2

[20] = test system: ECHCG (Echinochloa crus-galli); assay: Preemergence herbicidal evaluation; type: in vivo, (L.) Beau; conditions: Rate 0.0620 kg/ha; rated 4-5 weeks after treatment
Excerpt: as §1, §2

SETVI (Setaria viridis) [21] = assay: Preemergence herbicidal evaluation; type: in vivo, (L.) Beau; conditions: Rate 0.0620 kg/ha; rated 4-5 weeks after treatment
Excerpt: as §1, §2

[22] = test system: IPOHE (Ipomoea hederacea); assay: Postemergence herbicidal evaluation; type: in vivo, (L.) Jacq.; conditions: postemergence
Procedure: as §3, §1

[23] = test system: IPOHE (Ipomoea hederacea); assay: Preemergence herbicidal evaluation; type: in vivo, (L.) Jacq.; conditions: Rate 0.0620 kg/ha; rated 4-5 weeks after treatment
Excerpt: as §1, §2

SETVI (Setaria viridis) [24] = assay: Postemergence herbicidal evaluation; type: in vivo, (L.) Beau; conditions: postemergence
Procedure: In the tests, seedling plants are grown in jiffy flats for about two weeks. The test compounds are dispersed in 50/50 acetone/water mixtures containing 0.5% TWEEN® 20, a polyoxyethylene sorbitan monolaurate surfactant of Atlas Chemical Industries, in sufficient quantities to provide the equivalent of about 0.0040 kg to 1.000 kg per hectare of active compound when applied to the plants through a spray nozzle operating at 40 psi for a predetermined time. After spraying, the plants are placed on greenhouse benches and are cared for in accordance with conventional greenhouse procedures. From four to five weeks after treatment, the seedling plants are examined and rated according to the rating system set forth below. Where more than one test is involved for a given compound, the data are averaged.
as §1

ORYSAT (Rice, Tebonnet) [25] = assay: Preemergence herbicidal evaluation; type: in vivo, Oryza sativa, (L.) Tebonnet; conditions: Rate 0.0620 kg/ha; rated 4-5 weeks after treatment
Excerpt: as §1, §2

[26] = test system: ABUTH (Abutilon theophrasti); assay: Preemergence herbicidal evaluation; type: in vivo, Medic.; conditions: Rate 0.0620 kg/ha; rated 4-5 weeks after treatment
Excerpt: as §1, §2

GALAP (Galium aparine) [27] = assay: Preemergence herbicidal evaluation; type: in vivo; conditions: Rate 0.0620 kg/ha; rated 4-5 weeks after treatment
Excerpt: as §1, §2

ORYSAT (Rice, Tebonnet) [28] = assay: Flooded paddy, post-transplant rice tolerance; type: in vivo, Oryza sativa, (L.) Tebonnet; conditions: flooded paddy, post-transplant rice, rated 3-4 weeks after treatment, 0-9 rating scale
Procedure: as §1
The tolerance of transplanted rice to post-transplanted herbicide application is determined as follows: two ten-day-old rice seedlings (cv. Tebonnet) are transplanted into silt loam soil in 32 oz. plastic containers with a diameter of 10.5 cm and no drainage holes. After transplanting, the containers are flooded and the water level is maintained at 1.5 to 3 cm above the soil surface. […] The treated containers are placed on greenhouse benches, watered such that the water level is maintained as stated above, and cared for in accordance with conventional greenhouse procedures.

C[C@@H]1OC(c2nsc3cc(F)c(-n4c(=O)cc(C(F)(F)F)n(C)c4=O)cc23)O[C@@H]1C (stereo partly drawn) [Compound 63, 3-[3-[(4R,5S)-4,5-dimethyl-1,3-dioxolan-2-yl]-6-fluoro-1,2-benzisothiazol-5-yl]-1-methyl-6-(trifluoromethyl)uracil]
Preemergence herbicidal rating TRZAWR [1]: 7.0
ECHCG herbicidal rating ([2]; rate 0.0320 kg/ha): 6.0
ECHCG herbicidal rating ([2]; rate 0.0620 kg/ha): 7.0
GALAP herbicidal rating (GALAP (Galium aparine) [3]; rate 0.0320 kg/ha): 9.0
GALAP herbicidal rating (GALAP (Galium aparine) [3]; rate 0.0620 kg/ha): 9.0
GLXMAW herbicidal rating ([4]; rate 0.0320 kg/ha): 6.5
GLXMAW herbicidal rating ([4]; rate 0.0620 kg/ha): 9.0
ABUTH herbicidal rating ([5]; rate 0.0320 kg/ha): 9.0
ABUTH herbicidal rating ([5]; rate 0.0620 kg/ha): 9.0
AMBEL herbicidal rating ([6]; rate 0.0320 kg/ha): 9.0
AMBEL herbicidal rating ([6]; rate 0.0620 kg/ha): 9.0
CASOB herbicidal rating ([7]; rate 0.0320 kg/ha): 9.0
CASOB herbicidal rating ([7]; rate 0.0620 kg/ha): 9.0
CHEAL herbicidal rating ([8]; rate 0.0320 kg/ha): 9.0
CHEAL herbicidal rating ([8]; rate 0.0620 kg/ha): 9.0
TRZAWR herbicidal rating ([9]; rate 0.0320 kg/ha): 5.0
TRZAWR herbicidal rating ([9]; rate 0.0620 kg/ha): 6.0
ZEAMX herbicidal rating (ZEAMX (Corn, Field) [10]; rate 0.0320 kg/ha): 5.5
ZEAMX herbicidal rating (ZEAMX (Corn, Field) [10]; rate 0.0620 kg/ha): 6.0
ORYSAT herbicidal rating (ORYSAT (Rice, Tebonnet) [11]; rate 0.0320 kg/ha): 5.0
ORYSAT herbicidal rating (ORYSAT (Rice, Tebonnet) [11]; rate 0.0620 kg/ha): 6.0
herbicidal rating, CYPIR (CYPIR (Cyperus iria); rate 0.0080 kg/ha): 4.0
herbicidal rating, CYPIR (CYPIR (Cyperus iria); rate 0.0320 kg/ha): 9.0
herbicidal rating, CYPIR (CYPIR (Cyperus iria); rate 0.1250 kg/ha): 9.0
Preemergence herbicidal rating GLXMAW [12]: 9.0
herbicidal rating, ECHORC ([13]; rate 0.0080 kg/ha): 9.0
herbicidal rating, ECHORC ([13]; rate 0.0320 kg/ha): 9.0
herbicidal rating, ECHORC ([13]; rate 0.1250 kg/ha): 9.0
herbicidal rating, MOOVA ([14]; rate 0.0080 kg/ha): 3.0
herbicidal rating, MOOVA ([14]; rate 0.0320 kg/ha): 9.0
herbicidal rating, MOOVA ([14]; rate 0.1250 kg/ha): 9.0
Preemergence herbicidal rating ZEAMX (ZEAMX (Corn, Field) [15]): 8.0
herbicidal rating, SAGPY ([16]; rate 0.0080 kg/ha): 3.0
herbicidal rating, SAGPY ([16]; rate 0.0320 kg/ha): 7.0
herbicidal rating, SAGPY ([16]; rate 0.1250 kg/ha): 9.0
Preemergence herbicidal rating AMBEL [17]: 9.0
Preemergence herbicidal rating CASOB [18]: 9.0
Preemergence herbicidal rating CHEAL [19]: 9.0
Preemergence herbicidal rating ECHCG [20]: 9.0
Preemergence herbicidal rating SETVI (SETVI (Setaria viridis) [21]): 9.0
IPOHE herbicidal rating ([22]; rate 0.0320 kg/ha): 9.0
IPOHE herbicidal rating ([22]; rate 0.0620 kg/ha): 9.0
Preemergence herbicidal rating IPOHE [23]: 9.0
SETVI herbicidal rating (SETVI (Setaria viridis) [24]; rate 0.0320 kg/ha): 7.0
SETVI herbicidal rating (SETVI (Setaria viridis) [24]; rate 0.0620 kg/ha): 9.0
Preemergence herbicidal rating ORYSAT (ORYSAT (Rice, Tebonnet) [25]): 8.0
Preemergence herbicidal rating ABUTH [26]: 9.0
Preemergence herbicidal rating GALAP (GALAP (Galium aparine) [27]): 9.0
herbicidal rating, ORYSAT (rice tolerance) (ORYSAT (Rice, Tebonnet) [28]; rate 0.0080 kg/ha): 7.0
herbicidal rating, ORYSAT (rice tolerance) (ORYSAT (Rice, Tebonnet) [28]; rate 0.0320 kg/ha): 9.0
herbicidal rating, ORYSAT (rice tolerance) (ORYSAT (Rice, Tebonnet) [28]; rate 0.1250 kg/ha): 9.0
